PubChem BioAssay (NCI)
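Values below derive from 48-hour exposures of cells grown in 96-well plates, with endpoints linearly interpolated between the two concentrations bracketing the appropriate inhibition level. Here, GI50 denotes the concentration required for 50% inhibition of growth. Definition used: TGI = concentration required for complete inhibition of growth.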

What was measured:
Experiment in all cases: inhibition of tumour cell growth, NCI panel, 48 h
[1] = system: 786-0 renal
[2] = system: A498 renal
[3] = system: A549 NSCLC
[4] = system: ACHN renal
[5] = system: BT-549 breast
[6] = system: CAKI-1 renal
[7] = system: CCRF-CEM leukemia
[8] = system: COLO 205 colon
[9] = system: DU-145 prostate
[10] = system: EKVX NSCLC
[11] = system: HCC-2998 colon
[12] = system: HCT-116 colon
[13] = system: HCT-15 colon
[14] = system: HL-60(TB) leukemia
[15] = system: HOP-62 NSCLC
[16] = system: HOP-92 NSCLC
[17] = system: HS 578T breast
[18] = system: HT29 colon
[19] = system: IGROV1 ovarian
[20] = system: K-562 leukemia
[21] = system: KM12 colon
[22] = system: LOX IMVI melanoma
[23] = system: M14 melanoma
[24] = system: MALME-3M melanoma
[25] = system: MCF7 breast
[26] = system: MDA-MB-231 breast
[27] = system: MDA-MB-435
[28] = system: MOLT-4 leukemia
[29] = system: NCI-H226 lung
[30] = system: NCI-H23 lung
[31] = system: NCI-H460 lung
[32] = system: NCI-H522 lung
[33] = system: NCI/ADR-RES ovarian
[34] = system: OVCAR-3 ovarian
[35] = system: OVCAR-4 ovarian
[36] = system: OVCAR-5 ovarian
[37] = system: OVCAR-8 ovarian
[38] = system: PC-3 prostate
[39] = system: RPMI-8226 leukemia
[40] = system: RXF 393 renal
[41] = system: SF-268 CNS
[42] = system: SF-295 CNS
[43] = system: SF-539 CNS
[44] = system: SK-MEL-2 melanoma
[45] = system: SK-MEL-28 melanoma
[46] = system: SK-MEL-5 melanoma
[47] = system: SK-OV-3 ovarian
[48] = system: SN12C renal
[49] = system: SNB-19 CNS
[50] = system: SNB-75 CNS
[51] = system: SR leukemia
[52] = system: SW-620 colon
[53] = system: T-47D breast
[54] = system: TK-10 renal
[55] = system: U251 CNS
[56] = system: UACC-257 melanoma
[57] = system: UACC-62 melanoma
[58] = system: UO-31 renal

## FC(F)(F)CNc1nccc(-c2cnn3ncccc23)n1
[1]
  GI50: 9.67 µM
  TGI: > 25 µM
[2]
  GI50: 3.85 µM
  TGI: > 22.6 µM
[3]
  GI50: 10.3 µM
  TGI: > 25 µM
[4]
  GI50: 6.41 µM
  TGI: > 25 µM
[5]
  GI50: > 14.1 µM
  TGI: > 25 µM
[6]
  GI50: 15.9 µM
  TGI: > 25 µM
[7]
  GI50: > 18.9 µM
  TGI: > 25 µM
[8]
  GI50: 8.58 µM
  TGI: > 25 µM
[9]
  GI50: 12 µM
  TGI: > 25 µM
[10]
  GI50: 15.1 µM
  TGI: > 25 µM
[11]
  GI50: > 25 µM
  TGI: > 25 µM
[12]
  GI50: 8.3 µM
  TGI: > 25 µM
[13]
  GI50: 16.1 µM
  TGI: > 25 µM
[14]
  GI50: 8.35 µM
  TGI: > 19.9 µM
[15]
  GI50: > 13.6 µM
  TGI: > 25 µM
[16]
  GI50: 6.13 µM
  TGI: > 25 µM
[17]
  GI50: 8.14 µM
  TGI: > 25 µM
[18]
  GI50: 16.3 µM
  TGI: > 25 µM
[19]
  GI50: 11.9 µM
  TGI: > 25 µM
[20]
  GI50: > 25 µM
  TGI: > 25 µM
[21]
  GI50: 9.54 µM
  TGI: > 25 µM
[22]
  GI50: 10.7 µM
  TGI: > 25 µM
[23]
  GI50: 11.5 µM
  TGI: > 25 µM
[24]
  GI50: > 25 µM
  TGI: > 25 µM
[25]
  GI50: 7.3 µM
  TGI: > 25 µM
[26]
  GI50: > 25 µM
  TGI: > 25 µM
[27]
  GI50: 13.7 µM
  TGI: > 25 µM
[28]
  GI50: > 25 µM
  TGI: > 25 µM
[29]
  GI50: 12.6 µM
  TGI: > 25 µM
[30]
  GI50: 9.54 µM
  TGI: > 25 µM
[31]
  GI50: 10.2 µM
  TGI: > 25 µM
[32]
  GI50: 9.91 µM
  TGI: > 25 µM
[33]
  GI50: 13.6 µM
  TGI: > 25 µM
[34]
  GI50: 10.5 µM
  TGI: > 25 µM
[35]
  GI50: > 25 µM
  TGI: > 25 µM
[36]
  GI50: 9.68 µM
  TGI: > 25 µM
[37]
  GI50: 8.58 µM
  TGI: > 25 µM
[38]
  GI50: 24.5 µM
  TGI: > 25 µM
[39]
  GI50: > 17.5 µM
  TGI: > 25 µM
[40]
  GI50: 4.86 µM
  TGI: 12.4 µM
[41]
  GI50: 8.24 µM
  TGI: > 25 µM
[42]
  GI50: 11.9 µM
  TGI: > 25 µM
[43]
  GI50: 7.76 µM
  TGI: > 25 µM
[44]
  GI50: 8.72 µM
  TGI: > 25 µM
[45]
  GI50: 8.13 µM
  TGI: > 25 µM
[46]
  GI50: 10.5 µM
  TGI: > 25 µM
[47]
  GI50: > 25 µM
  TGI: > 25 µM
[48]
  GI50: 14.5 µM
  TGI: > 25 µM
[49]
  GI50: 12.7 µM
  TGI: > 25 µM
[50]
  GI50: 11.3 µM
  TGI: > 25 µM
[51]
  GI50: 6.88 µM
  TGI: > 25 µM
[52]
  GI50: 10.9 µM
  TGI: > 25 µM
[53]
  GI50: 8.93 µM
  TGI: > 25 µM
[54]
  GI50: 10.3 µM
  TGI: > 25 µM
[55]
  GI50: 9.82 µM
  TGI: > 25 µM
[56]
  GI50: > 19.2 µM
  TGI: > 25 µM
[57]
  GI50: 10.9 µM
  TGI: > 25 µM
[58]
  GI50: 15.3 µM
  TGI: > 25 µM

## CCOC(=O)c1c(-c2ccccc2)oc(=O)c(Cc2cccc3cccnc23)c1-c1ccccc1
[1]
  TGI: > 10 µM
[2]
  TGI: > 10 µM
[3]
  TGI: > 10 µM
[4]
  TGI: > 10 µM
[5]
  TGI: > 10 µM
[6]
  TGI: > 10 µM
[7]
  TGI: > 10 µM
[8]
  TGI: > 10 µM
[9]
  TGI: > 10 µM
[10]
  TGI: > 10 µM
[11]
  TGI: > 10 µM
[12]
  TGI: > 10 µM
[13]
  TGI: > 10 µM
[14]
  TGI: > 10 µM
[15]
  TGI: > 10 µM
[16]
  TGI: > 10 µM
[17]
  TGI: > 10 µM
[18]
  TGI: > 10 µM
[19]
  TGI: > 10 µM
[20]
  TGI: > 10 µM
[21]
  TGI: > 10 µM
[22]
  TGI: > 10 µM
[23]
  TGI: > 10 µM
[24]
  TGI: > 10 µM
[25]
  TGI: > 10 µM
[26]
  TGI: > 10 µM
[27]
  TGI: > 10 µM
[28]
  TGI: > 10 µM
[29]
  TGI: > 10 µM
[30]
  TGI: > 10 µM
[31]
  TGI: > 10 µM
[32]
  TGI: > 10 µM
[33]
  TGI: > 10 µM
[34]
  TGI: > 10 µM
[35]
  TGI: > 10 µM
[36]
  TGI: > 10 µM
[37]
  TGI: > 10 µM
[38]
  TGI: > 10 µM
[39]
  TGI: > 10 µM
[40]
  TGI: > 10 µM
[41]
  TGI: > 10 µM
[42]
  TGI: > 10 µM
[43]
  TGI: > 10 µM
[44]
  TGI: > 10 µM
[45]
  TGI: > 10 µM
[46]
  TGI: > 10 µM
[47]
  TGI: > 10 µM
[48]
  TGI: > 10 µM
[49]
  TGI: > 10 µM
[50]
  TGI: > 10 µM
[51]
  TGI: > 10 µM
[52]
  TGI: > 10 µM
[53]
  TGI: > 10 µM
[54]
  TGI: > 10 µM
[55]
  TGI: > 10 µM
[56]
  TGI: > 10 µM
[57]
  TGI: > 10 µM
[58]
  TGI: > 10 µM
